This note sets out measurements from patent US8921405B2, “Compounds” (Orexo AB, priority 2009, dated 2014).

The first test deals with T1, recombinant human mPGES-1 (Homo sapiens, UniProt O14684).
T1 construct: made in house; host or cells: Rosetta E. coli (membrane/microsome fraction)
T1 sequence (O14684 1-152): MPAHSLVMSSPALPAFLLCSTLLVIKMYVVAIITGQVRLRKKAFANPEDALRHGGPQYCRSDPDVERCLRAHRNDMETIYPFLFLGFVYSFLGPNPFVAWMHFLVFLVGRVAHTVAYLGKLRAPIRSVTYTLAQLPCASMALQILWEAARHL
As to the kind of experiment: mPGES-1 HTRF assay (inhibition of PGE2 formation from PGH2). It is filed as biochemical. As to conditions: HTRF assay. As to the method: The basis of the assay used is to measure the inhibition of microsomal prostaglandin E2 synthase-1 (mPGES-1) dependent prostaglandin (PG) E2 formation from PGH2 by different compounds. Thus, the formation of PGE2 is used as signal and a lowering of this signal can be interpreted as inhibition of mPGES-1. […] Microsomes from Rosetta E. coli bacteria expressing recombinant human mPGES-1 can be derived as described below: Inoculate 5 ml LB with Amp and Chloro with bacteria from freeze culture. Incubate over night at 37° C. with 200 rpm. Thereafter, inoculate 500-800 ml LB containing Amp and Chloro with the 5 ml on culture and grow to OD640 of 0.6-0.8. Chill the culture to +4° C. before induction. Induce the culture with IPTG at a final concentration of 400 μM. Express the protein at room temp 18-23° C. with 200 rpm shaking over night. The following steps can be performed on the following day: • 1. Spin down the cells in 250 ml centrifuge flasks for 15 min at 7000 rpm • 2. Dissolve the pellet from 250 ml culture in 12.5 ml homogenization buffer • 3. Disintegrate the cells by sonication, 4×10 seconds at 35% amplitude • 4. Add 2.5 ml MgCl2 (100 mM) and DNase 12.5 μl (0.8 mg/ml) and incubate on ice for 30 min • 5. Spin down the bacteria debris and save the supernatant, 7000 rpm for 15 min • 6. Isolate the protein containing membranes in the supernatant by ultracentrifugation 45000×g for 1 hour. • 7. Discard the supernatant and dissolve the pellet in 20 mM KPi buffer and aliquot the enzyme and store aliquots at −80° C. Before each experiment is performed an aliquot of the enzyme is thawed and it can then be dissolved in 0.1 M KPi pH 7.4 buffer containing 2.5 mM GSH. 50 μl of this enzyme solution is subsequently dispensed in a 384-well plate at room temperature. 0.5 μl of the inhibitor dissolved in DMSO is thereafter added to each well and incubated for 25 minutes at room temperature. Subsequently, 2 μl of PGH2 dissolved in an appropriate solvent is added to each well and after one minute at room temperature, the acidified stop solution containing FeCl2 is added. 4 μl of the total volume is transferred to a separate plate and diluted 750-fold in two separate steps before quantification of PGE2. In order to quantitate the amount of PGE2 that has been formed, a homogenous time resolved fluorescent (HTRF) detection of PGE2 can be performed by the use of a commercially available kit from CisBio essentially according to the manufacturer's protocol. […] The sealing film is thereafter removed from the NC wells. • 5 μl Eu3+-cryptate labeled anti-PGE2 can now be added to rows 1 to 24 by using a Multidrop. • The plate can now be covered with sealing film. • The plate can now be centrifuge at 1200 rpm for 1 minute and place at 4° C. overnight. After the over night incubation the fluorescence is measured by the use of an appropriate microplate reader. […] The extent of the specific HTRF is measured as a ratio of the emission intensity at 665 nm vs. that at 620 nm. A standard curve using synthetic PGE2 is used to quantify the amount of PGE2 in unknown samples. The degree of inhibition can be calculated as percent inhibition by dividing the amount of PGE2 formed in unknown samples by the amount of PGE2 formed in control samples.
In the case of `Cn1c(Nc2cc(CNC(=O)C(C)(C)C)ccc2Cl)nc2cc(C(=O)Nc3ccc(Br)cc3)ccc21` [Example 57, N-(4-Bromophenyl)-2-{2-chloro-5-[(tert.butylcarbonylamino)methyl]-phenylamino}-1-methylbenzimidazole-5-carboxamide], the IC50 amounted to 1 nM.
Same read-out and setting: to `Cn1c(Nc2cc(CNC(=O)C3(C(F)(F)F)CC3)ccc2Cl)nc2cc(C(=O)Nc3ccc(Br)cc3)c(OCC(F)F)cc21` [Example 59, N-(4-Bromo-phenyl)-2-(2-chloro-5-{[(1-trifluoromethyl-cyclopropanecarbonyl)-amino]-methyl}-phenylamino)-6-(2,2-difluoro-ethoxy)-1-methyl-1H-benzimidazole-5-carboxylic acid amide] belongs 2 nM.
Consider `Cn1c(Nc2cc(CNC(=O)C3(C(F)(F)F)CC3)ccc2Cl)nc2cc(C(=O)NCC3CC3)c(OCC(F)F)cc21` [Example 60, N-(Cyclopropylmethyl)-2-(2-chloro-5-{[(1-trifluoromethyl-cyclopropanecarbonyl)-amino]-methyl}-phenylamino)-6-(2,2-difluoro-ethoxy)-1-methyl-1H-benzimidazole-5-carboxylic acid amide], for which the IC50 worked out at 1 nM.
Regarding `Cn1c(Nc2cc(CNC(=O)C3(C(F)(F)F)CC3)ccc2Cl)nc2cc(C(=O)NCCCC(F)(F)F)c(OCC(F)F)cc21` [Example 61, N-(4,4,4-Trifluorobutyl)-2-(2-chloro-5-{[(1-trifluoromethyl-cyclopropanecarbonyl)-amino]-methyl}-phenylamino)-6-(2,2-difluoro-ethoxy)-1-methyl-1H-benzimidazole-5-carboxylic acid amide], the IC50 amounted to 1 nM.
Same read-out and setting: the result for `Cn1c(Nc2cc(CNC(=O)C3(C(F)(F)F)CC3)ccc2Cl)nc2cc(C(=O)NC3CCC(F)(F)CC3)c(OCC(F)F)cc21` [Example 62, N-(4,4-Difluorocyclohexyl)-2-(2-chloro-5-{[(1-trifluoromethyl-cyclopropanecarbonyl)-amino]-methyl}-phenylamino)-6-(2,2-difluoro-ethoxy)-1-methyl-1H-benzimidazole-5-carboxylic acid amide] reads 1 nM.
Same read-out and setting: the result for `COc1cc2c(cc1C(=O)Nc1ccc(Br)cc1)nc(Nc1cc(CNC(=O)C3(C(F)(F)F)CC3)ccc1Cl)n2C` [Example 63, N-(4-Bromo-phenyl)-2-(2-chloro-5-{[(1-trifluoromethyl-cyclopropanecarbonyl)-amino]-methyl}-phenylamino)-6-methoxy-1-methyl-1H-benzimidazole-5-carboxylic acid amide] reads 2 nM.
Regarding `COc1cc2c(cc1C(=O)NCC1CC1)nc(Nc1cc(CNC(=O)C3(C(F)(F)F)CC3)ccc1Cl)n2C` [Example 64, N-(Cyclopropylmethyl)-2-(2-chloro-5-{[(1-trifluoromethyl-cyclopropanecarbonyl)-amino]-methyl}-phenylamino)-6-methoxy-1-methyl-1H-benzimidazole-5-carboxylic acid amide], the IC50 was 2 nM.
For the molecule `COc1cc2c(cc1C(N)=O)nc(Nc1cc(CNC(=O)C3(C(F)(F)F)CC3)ccc1Cl)n2C` [Example 65, 2-(2-chloro-5-{[(1-trifluoromethyl-cyclopropanecarbonyl)-amino]-methyl}-phenylamino)-6-methoxy-1-methyl-1H-benzimidazole-5-carboxylic acid amide], the IC50 came to 300 nM.
On the same count and under the same terms, the result for `Cn1c(Nc2cc(CNC(=O)C3(C(F)(F)F)CC3)ccc2F)nc2cc(C(=O)Nc3ccc(Br)cc3)c(OCC(F)F)cc21` [Example 66, N-(4-Bromo-phenyl)-2-(2-fluoro-5-{[(1-trifluoromethyl-cyclopropanecarbonyl)-amino]-methyl}-phenylamino)-6-(2,2-difluoro-ethoxy)-1-methyl-1H-benzimidazole-5-carboxylic acid amide] reads 3 nM; that for `O=C(Nc1ccc(Br)cc1)c1cc2nc(Nc3cc(CNC(=O)C4(C(F)(F)F)CC4)ccc3Cl)[nH]c2cc1OCC(F)F` [Example 67, N-(4-Bromo-phenyl)-2-(2-chloro-5-{[(1-trifluoromethyl-cyclopropanecarbonyl)-amino]-methyl}-phenylamino)-6-(2,2-difluoro-ethoxy)-1H-benzimidazole-5-carboxylic acid amide], 2 nM; that for `O=C(NCC1CC1)c1cc2nc(Nc3cc(CNC(=O)C4(C(F)(F)F)CC4)ccc3Cl)[nH]c2cc1OCC(F)F` [Example 68, N-(Cyclopropylmethyl)-2-(2-chloro-5-[{(l-trifluoromethyl-cyclopropanecarbonyl)-amino]-methyl}-phenylamino)-6-(2,2-difluoro-ethoxy)-1H-benzimidazole-5-carboxylic acid amide], 3 nM.
Turning to `COc1cc2[nH]c(Nc3cc(CNC(=O)C4(C(F)(F)F)CC4)ccc3Cl)nc2cc1C(=O)Nc1ccc(Br)cc1` [Example 69, N-(4-Bromo-phenyl)-2-(2-chloro-5-{[(1-trifluoromethyl-cyclopropanecarbonyl)-amino]-methyl}-phenylamino)-6-methoxy-1H-benzimidazole-5-carboxylic acid amide], the concentration for half-maximal inhibition (IC50) came out at 1 nM.

Staying with this test, now noted: compound concentration of 10 μM, HTRF assay; read-out: % inhibition.
Take `Cn1c(Nc2cc(CNC(=O)C3(C)CCCO3)ccc2Cl)nc2cc(C(=O)Nc3ccc(Br)cc3)ccc21` (stereo not shown) [Example 49, N-(4-Bromophenyl)-2-{2-chloro-5-[(2-methyl-2-tetrahydrofurylamido)-methyl]phenylamino}-1-methylbenzimidazole-5-carboxamide]: the inhibition at 10 µM worked out at 100%.
With `Cn1c(Nc2cc(CNC(=O)C3(CN)CC3)ccc2Cl)nc2cc(C(=O)Nc3ccc(Br)cc3)ccc21` [Example 50, 2-(5-{[1-(Aminomethyl)cyclopropylamido]methyl}-2-chlorophenylamino)-N-(4-bromophenyl)-1-methylbenzimidazole-5-carboxamide], the inhibition at 10 µM came out at 100%.
On the same count and under the same terms, to `Cn1c(Nc2cc(CNC(=O)C3(C)CCC(F)(F)CC3)ccc2Cl)nc2cc(C(=O)Nc3ccc(Br)cc3)ccc21` [Example 51, N-(4-Bromophenyl)-2-{2-chloro-5-[(4,4-difluoro-1-methylcyclohexyl-amido)methyl]phenylamino}-1-methylbenzimidazole-5-carboxamide] belongs 94%.
In the case of `Cn1c(Nc2cc(CNC(=O)C3(C(F)(F)F)CC3)ccc2Cl)nc2cc(C(=O)NCCOC(C)(C)C)ccc21` [Example 52, N-(2-tert-Butoxyethyl)-2-{2-chloro-5-[(1-trifluoromethylcyclopropyl-amido)methyl]phenylamino}-1-methylbenzimidazole-5-carboxamide], the inhibition at 10 µM is 96%.
`Cn1c(Nc2cc(CNC(=O)C3(C(F)(F)F)CC3)ccc2Cl)nc2cc(C(=O)NCCCC(F)(F)F)ccc21` [Example 53, 2-{2-Chloro-5-[(1-trifluoromethylcyclopropylamido)methyl]phenylamino}-1-methyl-N-(4,4,4-trifluorobutyl)benzimidazole-5-carboxamide]: the inhibition at 10 µM turned out to be 100%.
The same measure, in the same setting: to `Cn1c(Nc2cc(CNC(=O)C3(C(F)(F)F)CC3)ccc2Cl)nc2cc(C(=O)NC3CCC(F)(F)CC3)ccc21` [Example 54, 2-{2-chloro-5-[(1-trifluoromethylcyclopropylamido)methyl]phenylamino}-N-(4,4-difluorocyclohexyl)-1-methylbenzimidazole-5-carboxamide] belongs 98%.
In the case of `CN1CCCC1CCNC(=O)c1ccc2c(c1)nc(Nc1cc(CNC(=O)C3(C(F)(F)F)CC3)ccc1Cl)n2C` (stereo not shown) [Example 55, 2-{2-chloro-5-[(1-trifluoromethylcyclopropylamido)methyl]phenylamino}-1-methyl-N-[2-(1-methyl-2-pyrrolidinyl)ethyl]benzimidazole-5-carboxamide], the inhibition at 10 µM is 68%.

Broadly, the IC50 is the midpoint of a concentration-inhibition curve. As usually defined, the inhibition is the relative decrease from the control value, in per cent.
